Patent publication EP1161957A1, “Complex for transferring an anionic substance of interest into a cell” (TRANSGENE S.A., priority 2000, dated 2001)
Ends that are not written are not given here.

System: B6SJL mice
Conditions: intravenous injection of pTG11236/peptide complexes, dead mice per group of five
Experimental: Indicated amounts of the luciferase expression plasmid pTG11236 were mixed with ppTG1 and /or pcTG90/DOPE. […] Muscles, tumors or organs were recovered at the indicated points of time, macerated and tested for luciferase activity with the luciferase assay kit from Promega.
After 20 min incubation at room temperature, the complexes were intravenously injected into B6SJL mice. Mice were sacrificed at day 1. The lungs were recovered, total protein was extracted and luciferase activity was analysed.
The potential of gene transfer with mono-component peptide vectors was investigated in vivo. […] Five mice per group were intravenously injected, the animals were sacrificed at day 1 after injection. Lungs were tested for luciferase activity.

## GLFRALLRLLRSLWRLLLRA [ppTG20]
  toxicity: less toxic than ppTG1
